Assay results reported in US20250073211A1, “USE OF ERGOTHIONEINE TO SUPPRESS DELETERIOUS EFFECTS OF SENESCENCE” (NANJING NUTRABUILDING BIO-TECH CO., LTD., priority 2022, published 2025).

Key:
HDFn cells [1] = experiment: Senolytic Profile Assay (cell counts and senescence markers after 3 days of acute treatment at passage 31); format: cell-based, Human; conditions: for cell counts: 3 days of treatment; for Ki67-positive population: day 9 to 12 timepoint, 0 μM: 3.4%±1.5, p<0.001; for percentage of p21 positive HDFn cells / percentage of p16 positive HDFn cells: timepoint 1 (day 0 to 3); for percentage of p21 positive HDFn cells: 0 μM: 63.1%±9.3; for percentage of p16 positive HDFn cells: 0 μM: 67.8%±4.7
Procedure: (§1) HDFn cells (C0045C, Thermo Scientific, US) were obtained and proliferated to passage 32 (population doubling 58) in standard DMEM proliferation medium (10% FBS) at standard culture conditions (37°° C., 20% O2, 5% CO2). At each passage, cells were cryopreserved and banked. The cells were deemed replicatively senescent at passage 32. When required, cryovial contents was thawed gradually into 5 ml pre-warmed 10% FBS media with gentle pipetting and centrifuged. The supernatant was discarded, and the cell pellet was resuspended into 10% media and cells were counted using a hemocytometer and trypan blue.
Treatment conditions tested in this assay were 0, 3, 30 and 300 μM of EGT as an acute supplementation over 3 days in standard DMEM (10% FBS). Positive controls for senolytic activity were 13 μM of Navitoclax and 600 μM of Fisetin. A 0.1% DMSO condition was introduced as a vehicle control for Fisetin. At passage 31, the HDFn cells were seeded at 10,000 cells per well in triplicate wells onto 48-well plates. After 2 days of acclimatization, cells were treated for 3 days with the conditions above. The cells were then washed with PBS and fixed with 2% PFA. The wells were filled with PBS and stored at 4° C. until immunostaining. For β-galactosidase staining, the staining solution was added onto the cells immediately after fixation and incubated at 37° C. for 24 h. The staining solution was removed, and the wells filled with PBS until imaging. This was repeated for timepoints day 0 to 3, day 6 to 9, and day 9 to 12.
(§2) The panel of senescence markers, Ki67, p16 and p21 were analyzed by immunohistochemical staining using an HRP/DAB kit (ab64264, Abcam, UK). • Antibody details • 1) Ki67—1:1000 dilution, anti-rabbit, ab92742, Abcam; • 2) p16—1:500 dilution, anti-rabbit, ab 108349, Abcam; • 3) p21—1:100 dilution, anti-rabbit, ab 109542, Abcam.
(§3) The cells were counterstained with hematoxylin.
(§4) The senescence-associated β-galactosidase solutions and staining was performed according to Dimri et al, A biomarker that identifies senescent human cells in culture and in aging skin in vivo, Proc. Natl. Acad. Sci. 1995 Sep. 26; 92 (20): 9363-9367. The cells were counterstained with Nuclear Fast Red.
(§5) All staining were imaged on an EVOS XL core microscope at 100× magnification.
(§6) The images were white balanced using a macro on ImageJ. Cells were manually counted using the cell counter plugin and recorded. Graphs and statistics were created using GraphPad Prism 5. For each dataset, a two-way ANOVA was performed with Bonferroni posthoc test against the untreated control. P-values on the graphs are shown as *p<0.05, ** p<0.01, *** p<0.001.

HDFn cells [2] = experiment: Senostatic Profile Assay (senescence markers Ki67, p21, p16, SAβG under chronic supplementation); format: cell-based, Human; conditions: for percentage of SAβG positive HDFn cells: untreated 9.8%±2.7
Procedure: as §1
Treatment conditions tested in this assay were 0, 0.5, 3.0 and 30 μM of EGT as a constant supplementation in standard DMEM (10% FBS). HDFn cells were thawed at passage 20 and seeded at 1.5×10^5 cells per flask. Three flasks per condition were seeded. Media was changed every three days. At passages 22, 24, and 26, the HDFn cells were seeded onto 48-well plates at 10,000 cells per well in triplicates per flask, and cultured in DMEM media containing 0, 0.5, 3.0, and 30 μM of EGT, respectively. The cells were proliferated until 70% confluence or for 7 days. The cells were then washed with PBS and fixed with 2% PFA, and stored at 4° C. until immunostaining. For β-galactosidase staining, the staining solution was added onto the cells immediately after fixation and incubated at 37° C. for 24 h. The staining solution was removed, and the wells filled with PBS until imaging. As a positive control for senescence phenotype, one set of wells from the untreated flasks were seeded. At 70% confluence, the cells were treated with 600 μM of hydrogen peroxide in serum-free DMEM for 2 h, then incubated with standard DMEM proliferation medium for 5 days to allow the senescence phenotype to develop. The cells were fixed and stained in the same manner as the other treatment conditions.
as §2, §3, §4, §5, §6

`O=c1c(O)c(-c2ccc(O)c(O)c2)oc2cc(O)ccc12` [FIS, Fisetin, reference compound] was tested, and the cell counts (HDFn cells [1]; passage 31, 600 μM Fisetin, positive control) was “dramatically decreased”.

For `CC1(C)CCC(c2ccc(Cl)cc2)=C(CN2CCN(c3ccc(C(=O)NS(=O)(=O)c4ccc(N[C@H](CCN5CCOCC5)CSc5ccccc5)c(S(=O)(=O)C(F)(F)F)c4)cc3)CC2)C1` [NAV, Navitoclax, reference compound], the cell counts (HDFn cells [1]; passage 31, 13 μM Navitoclax, positive control) was “dramatically decreased”.

`C[N+](C)(C)[C@@H](Cc1c[nH]c(=S)[nH]1)C(=O)[O-]` [EGT, L-Ergothioneine] was tested, and the senolytic activity (HDFn cells [1]; HDFn cells at passage 31, at up to 300 μM) was “not senolytic”, the Ki67-positive population (HDFn cells [1]; passage 31, 30 μM EGT) was 9.2%±3.8 and the “percentage of p21 positive HDFn cells” value (HDFn cells [1]; passage 31, 30 μM EGT) was 29.1%±7.4. The “percentage of p16 positive HDFn cells” value (HDFn cells [1]; passage 31, 30 μM EGT) was 7.0%±2.8, the Ki67-positive population (HDFn cells [1]; passage 31, 300 μM EGT) was 11.4%±2.6 and the “percentage of p21 positive HDFn cells” value (HDFn cells [1]; passage 31, 300 μM EGT) was 27.0%±2.0. For the same compound, the “percentage of p16 positive HDFn cells” value (HDFn cells [1]; passage 31, 300 μM EGT) was 11.7%±5.9, the cell counts (HDFn cells [1]; passage 31, 3, 30 and 300 μM EGT vs 0 μM) was “did not change much” and the “effect on the percentage of SAβG positive HDFn cells” value (HDFn cells [1]; passage 31, EGT 3, 30, 300 μM, any timepoint) was “no statistically significant effect”. The “effect on the percentage of p16 positive HDFn cells” value (HDFn cells [2]; across all three passages (22, 24, 26), EGT 0.5, 3.0, 30 μM) was “did not robustly affect”, the “change of percentage of Ki67 positive HDFn cells compared with the untreated control” value (HDFn cells [2]; all three passages (22, 24, 26), EGT 0.5, 3.0, 30 μM constant supplementation) was “did not result in statistically significant changes” and the senostatic effect (HDFn cells [2]; low chronic doses (0.5-30 μM) in HDFn cells) was “can confer senostatic effects”. The “reduction of the percentage of p21 positive HDFn cells” value (HDFn cells [2]; passage 22, 0.5 μM EGT, p<0.001) was 16.5%, the “percentage of p21 positive HDFn cells” value (HDFn cells [2]; passage 22, 0.5 μM EGT, untreated 82.5%±2.3, mean±SEM) was 66.0%±2.4 and the “reduction of the percentage of p21 positive HDFn cells” value (HDFn cells [2]; passage 22, 3 μM EGT, p<0.001) was 20.1%. For the same compound, the “reduction of the percentage of p21 positive HDFn cells” value (HDFn cells [2]; passage 22, 30 μM EGT, p<0.001) was 21.8%, the “reduction in p16-positive cells” value (HDFn cells [2]; passage 24, 0.5 μM EGT, p<0.001) was 15% and the “change of percentage of p21 positive HDFn cells” value (HDFn cells [2]; passage 24 or 26, EGT 0.5, 3.0, 30 μM) was “did not result in statistically significant changes”. The “percentage of SAβG positive HDFn cells” value (HDFn cells [2]; passage 26, 0.5 μM EGT, p<0.001) was 4.8%±5.7, the “percentage of SAβG positive HDFn cells” value (HDFn cells [2]; passage 26, 3.0 μM EGT, p<0.001) was 3.5%±2.0 and the “percentage of SAβG positive HDFn cells” value (HDFn cells [2]; passage 26, 30 μM EGT, p<0.001) was 5.0%±2.9. The “mean SAβG reduction” value (HDFn cells [2]; passage 26, mean over 0.5, 3.0 and 30 μM EGT) was 50%.

For `OO` [hydrogen peroxide, reference compound], the “SAβG levels (senescence-associated β-galactosidase positive HDFn cells)” value (HDFn cells [2]; 600 μM hydrogen peroxide for 2 h, then 5 days, positive control for senescence phenotype) was “remained low”.
